Results: patent US20140206028A1, “Stable Electrically Active Neurons from Adult Tissue” (University of Central Florida Research Foundation, Inc., priority 2011, published 2014)

Key:
Assay type in all cases: cell-based
[1] = test system: adult rat hippocampal neurons on MEAs; assay: MEA recording of spontaneous activity, adult hippocampal neurons; conditions: adult cultures
Protocol: Adult neurons were extracted, dissociated, cultured, and maintained. Briefly, the hippocampi of adult rats (Charles River, age 6-12 months) were dissected and homogenized into small tissue fragments in cold medium (˜4° C.) consisting of Hibernate-A, glutamax, and antibiotic-antimycotic. The tissue was digested for 30 minutes at 37° C. in calcium-free Hibernate-A (HA) containing 6 mg papain/12 ml (HA no calcium). Following digestion, the tissue was washed three times with cold HA media to remove any active enzyme. Next, the tissue was suspended in Dissociation Medium and broken apart into individual cells through mechanical dissociation with fire-polished Pasteur pipettes. The dissociated cells were suspended in Plating medium and then deposited onto DETA (N-1 [3-(trimethoxysilyl) propyl]-diethylenetriamine, United Chemical Technologies Inc., Bristol, Pa., T2910KG) coated glass cover slips. After 30-45 minutes, the cover slips were washed with warm HA by gently swirling the medium to remove tissue debris. Following this washing step, fresh Plating medium was applied and remained for the first 3 div. On 3 div the medium was removed and replaced by Maintenance Medium with 5 μM Roscovitine (Rosc, Sigma, R7772). All research was approved by the Institutional Animal Care and Use Committee at the University of Central Florida and conformed to NIH guidelines. After 4 div, the adult hippocampal neurons on the DETA cover slips were passaged to MEAs. Briefly, neurons were dislodged from the DETA with trypsin (0.05% trypsin/EDTA in HBSS, Gibco, 25200). Trypsin inhibitor (trypsin inhibitor, soybean, Gibco, 17075-029) in Dissociation medium at 0.5 mg per ml deactivated the trypsin. The dislodged neurons were collected and spun at 500×g for 5 minutes. The supernatant of deactivated trypsin in HBSS was discarded, and the neuronal cell pellet was suspended in 1 ml Plating medium. Immunocytochemistry and Laser Scanning Confocal Microscopy
(§1) The MEA chips (Axion Biosystems) provided 64 platinum-black coated gold-electrodes with a diameter of 30 μm, organized in an 8 by 8 array with 200 μm pitch. Clean MEAs were sterilized with 70% alcohol and then incubated with 1 ml poly-L-lysine (100 μg/ml) for 30 minutes. An area just large enough to cover all electrodes was additionally coated with 3 μl laminin (2 μg/ml) over night. Embryonic rat hippocampal neurons were plated directly on MEAs at a density of 500 cells/mm2. Adult rat hippocampal neurons were first cultured on DETA coated cover slips for recovery. […] After 4 days on DETA cover slips, the adult neurons were passaged onto MEAs at a density of 500 cells/mm2. Every 2-3 days, half the medium was replaced with fresh Maintenance medium supplemented with 2 μM Rosc.
(§2) MEAs were incubated with their covers off to allow gas exchange but covered upon removal from the incubator to reduce contamination, media evaporation, and gas exchange while recordings were taken. The head stage of the recording system (Axion Biosystems) was pre-heated to 37° C. before MEAs with adult or embryonic hippocampal cultures were investigated. The activity of neuronal networks was recorded with 25 kHz using the software Axion's Integrated Studio (AxIS). Signal amplitudes 6 times larger than the standard deviation of the base line were detected as action-potential spikes. The spike data was then imported into Matlab 2010b (The MathWorks) for further processing.
Baseline spontaneous activity in adult and embryonic neurons was recorded for 3 minutes on 5 consecutive days per week, starting on 7 div. The synaptic antagonists D-(−)-2-Amino-5-phosphonopentanoic acid (D-APS, 25 μM, Tocris Bioscience, 0106), 6-Cyano-7-nitroquinoxaline-2,3-dione disodium (CNQX, 25 μM, Tocris Bioscience, 1045), and (−)-Bicuculline methobromide (Bicuculline, 50 μM, Tocris Bioscience, 0109) were separately administered to both adult and embryonic neurons on 14 div and at various time points between 30 and 60 div. […]

[2] = test system: embryonic rat hippocampal neurons on MEAs; assay: MEA recording of spontaneous activity, embryonic hippocampal neurons; conditions: embryonic cultures
Protocol: Embryonic hippocampal neurons were cultured. Pregnant rats, 18 days in gestation, obtained from Charles River were euthanized with carbon dioxide and the fetuses were collected in ice-cold Hibernate E (BrainBits)/B27/Glutamaxtm/Antibiotic-antimycotic (Invitrogen) (Dissecting Medium). Each fetus was decapitated, and the whole brain was transferred to fresh ice cold dissecting medium. After isolation, the hippocampi were collected in a fresh tube of dissecting medium. The tissue was enzymatically digested at 37° C. for 10 minutes with papain (Worthington 3119), 12 mg/6 ml Hibernate-E (-calcium) (BrainBits)+0.5 mM Glutamax (Invitrogen). Hippocampal neurons were obtained by triturating the tissue using a fire-polished Pasteur pipette. After centrifugation, the cells were re-suspended in culture medium (Neurobasal/B27/Glutamaxtm/antibiotic-antimycotic) and plated on MEAs. All research was approved by the Institutional Animal Care and Use Committee at the University of Central Florida and conformed to NIH guidelines.
as §1, §2
Baseline spontaneous activity in adult and embryonic neurons was recorded for 3 minutes on 5 consecutive days per week, starting on 7 div. The synaptic antagonists D-(−)-2-Amino-5-phosphonopentanoic acid (D-APS, 25 μM, Tocris Bioscience, 0106), 6-Cyano-7-nitroquinoxaline-2,3-dione disodium (CNQX, 25 μM, Tocris Bioscience, 1045), and (−)-Bicuculline methobromide (Bicuculline, 50 μM, Tocris Bioscience, 0109) were separately administered to both adult and embryonic neurons on 14 div and at various time points between 30 and 60 div. Three minute recordings were made to quantify the effect from these antagonists on spontaneous activity. If necessary, additional baselines were recorded prior to the administration of antagonists. Each experiment was followed by a complete washout of the antagonist and replacement with fresh medium.
Data analysis was performed off-line using unpublished Matlab functions to evaluate spike files created during each MEA recording. […] In about 25% of the adult cultures and 14% of the embryonic cultures, portions of the neuronal networks detached from the substrate over time and especially after about 6 weeks. In order to accommodate the different numbers of active channels between MEAs, all values were corrected for the amount of active channels on an MEA. […]

[3] = test system: adult rat hippocampal neurons; assay: Control of neuronal division in dissociated adult rat hippocampal neuron culture (cell population, neurite length, marker expression); conditions: for elimination of division of cultured neurons by mitotic inhibitors: added to culture medium on 2 DIV, FudR 10 and 50 μM; for neuronal division after addition to the culture medium: roscovitine added to the culture medium (at 3 div in MEA work)
Protocol: The hippocampi of adult rats (Charles River, age 6-12 months) were dissected and homogenized into small tissue fragments in cold medium (˜4° C.) consisting of Hibernate-A, Glutamax, and antibiotic-antimycotic. The tissue was then digested for 30 minutes at 37° C. in calcium-free Hibernate-A (HA) containing 6 mg papain/12 ml (HA). Following digestion, the tissue was washed three times with cold Hibernate-A media to remove any active enzyme. Next, the tissue was suspended in Dissociation Media (Table 1), formulated for dissociation of rat and mouse adult brain tissue into individual cells and dissociated into individual cells through mechanical dissociation with fire-polished Pasteur pipettes. The dissociated cells were suspended in Plating Media (Table 1), used after tissue dissociation to promote neuronal attachment and regeneration, and then deposited onto DETA-coated glass cover slips for 30-45 minutes. DETA, with its triamine functional group exposed at the surface, strongly attaches to neurons and allows for all non-neuronal debris such as ECM proteins, myelin debris, and cell fragments to be washed from the cover slip surface (D. A. Stenger et al., 1993; J. J. Hickman et al., 1994; M. Das et al., 2005; A. E. Schaffner et al., 1995). Following this washing step, fresh Plating medium was applied and remained for the first 3 DIV. On 3 DIV and every fourth subsequent day, one half of the medium was removed and replaced with Maintenance Media (FIG. 1, Table 1), supporting the long-term maintenance of these neurons. […] The osmolarity of the media was adjusted to match the osmolarity of adult rat cerebrospinal fluid (295-305 mOsm) (S. C. Baraban et al., 1997; R. A. Fishman and G. D. Silverberg, 2002). In the Dissociation Medium (Table 1), the use of caspase inhibitors and antioxidants (M. Das et al., 2007) during the dissociation of the tissue minimized both oxidative damage as well as the progression into apoptosis which normally results from cellular damage during this stage. […] For long-term survival, the anti-oxidants were removed from the Maintenance Medium (Table 1).
After neuronal confluence, 25 μM glutamate ((N-Acetyl-L-glutamic acid, Aldrich, 855642) triggers induction of neuronal electrical recovery (D. Edwards et al., 2010). Control of the division of neurons in this culture system was investigated experimentally as follows: (1) bFGF removal from both the Plating and Maintenance medium. (2) Fluorodeoxyuridine (FudR, Sigma-Aldrich, F-0503) addition at 10 and 50 μM (3) arabinoside-D (ara-C, Sigma, C-6645) plus deoxycytidine addition. (4) Trolox (Sigma, 238813) addition at 40 and 100 μM. (5) Aphidicolin (Aph, Sigma, A0781) addition at 1.5 μM. (6) Roscovitine (Rosc, Sigma, R7772) addition at 1, 5, and 10 μM. All factors were added before the onset of neuronal division (2 DIV), some after the onset of division (after 3 DIV).
To prepare cells for immunocytochemical characterization, cover slips were rinsed twice with Phosphate Buffered Saline (PBS). Cells were fixed with 4% paraformaldehyde for ten minutes at room temperature, and subsequently rinsed three times with PBS. Cells were permeabilized for five min in PBS with 5 mM Lysine and 0.5% Triton X-100, and were then blocked for two hours by adding 5% normal donkey serum. Anti-Neurofilament-M polyclonal antibody (Nf-M, intracellular filament found in mature neurons, Chemicon, AB 1981, diluted 1:1000), anti-NeuN (nuclear marker in mature neurons, Chemicon, diluted 1:1000), anti-Ki-67 (nuclear marker in dividing cells, Chemicon, diluted 1:1000), anti-NR2A (NMDA channel subunit expressed in the post-synaptic cell membrane, AB1548, diluted 1:75), anti-NR2B (NMDA channel subunit expressed in the post-synaptic cell membrane, MAB5216, diluted 1:150) were added in blocking solution for 12 hr at 4° C. After 3 washes with PBS, fluorescently labeled secondary antibodies (Invitrogen, A1011, A21449, and A11029) were applied for two hours. […]

## N#Cc1cc2c(cc1[N+](=O)[O-])=NC(=O)C(=O)N=2.[Na].[Na] [CNQX, 6-Cyano-7-nitroquinoxaline-2,3-dione disodium]
[1]; 25 μM CNQX, 14 div
  change in action potential frequency: not affected
[1]; 25 μM antagonist, 14 div
  loss of channel activity (active channels) versus baseline: 52±3%
[1]; 25 μM antagonist, 30-60 div
  loss of channel activity (active channels) versus baseline: 24±5%
  lowering (drop) of action potential frequency versus baseline: 31±6%
[2]; 25 μM CNQX, 14 div
  change in action potential frequency: not affected
[2]; 25 μM antagonist, 14 div
  loss of channel activity (active channels) versus baseline: 23±5%
[2]; 25 μM antagonist, 30-60 div
  decrease (drop) of firing rate versus baseline: 47±5%
  loss of channel activity (active channels) versus baseline: 0±7%

## N[C@H](CCCP(=O)(O)O)C(=O)O [D-AP5, D-(−)-2-Amino-5-phosphonopentanoic acid]
[1]; 25 μM antagonist, 14 div
  loss of channel activity (active channels) versus baseline: 90±6%
  lowering of action potential frequency versus baseline: 76±8%
[1]; 25 μM antagonist, 30-60 div
  loss of channel activity (active channels) versus baseline: 82±6%
  lowering (drop) of action potential frequency versus baseline: 82±17%
[2]; 25 μM antagonist, 14 div
  increase of firing rate versus baseline: 90±6%
  loss of channel activity (active channels) versus baseline: 65±4%
[2]; 25 μM antagonist, 30-60 div
  decrease (drop) of firing rate versus baseline: 70±7%
  loss of channel activity (active channels) versus baseline: 36±7%

## O=c1[nH]c(=O)n([C@H]2C[C@H](O)[C@@H](CO)O2)cc1F [FudR, Fluorodeoxyuridine]
[3]
  elimination of division of cultured neurons by mitotic inhibitors: all dividing cells were forced into apoptosis

## Cc1c(C)c2c(c(C)c1O)CCC(C)(C(=O)O)O2 (centres unmarked) [Trolox]
[3]; Trolox 40 and 100 μM, 2 DIV
  prevention of return of primary neurons to the cell cycle: not effective
[3]; Trolox in culture medium
  neuronal survival (antioxidant activity): improve neuronal survival

## C[C@@]1(CO)[C@H](O)CC[C@@]2(C)[C@H]1CC[C@H]1C[C@@H]3C[C@@]12CC[C@]3(O)CO [aphidicolin, Aphidicolin]
[3]; aphidicolin 1.5 μM, 2 DIV
  regeneration of surviving neurons: limited regeneration of neurites and functional electrical properties
  survival of cultured neurons: caused most cultured neurons to either necrose or apoptose

## Nc1ccn([C@@H]2O[C@H](CO)[C@@H](O)[C@@H]2O)c(=O)n1 [ara-C, arabinoside-D]
[3]
  elimination of division of cultured neurons by mitotic inhibitors: all dividing cells were forced into apoptosis

## CC[C@H](CO)Nc1nc(NCc2ccccc2)c2ncn(C(C)C)c2n1 [roscovitine]
[3]; 1 μM roscovitine applied on day 2, bFGF in medium
  neuronal cell population: the cell population increased more slowly than without roscovitine
[3]; 5 μM roscovitine days 2-7, 2 μM after day 7, on average
  extension of primary axons versus untreated control neurons: 4-5 times longer
[3]; 5 μM roscovitine on days 2-7 in vitro and 2 μM after day 7
  neuronal cell population: A stable population of neurons was achieved
[3]; 5 μM roscovitine on days 2-7 in vitro and 2 μM after day 7, listed as Rosc
  neuronal cell population: stable in vitro
[3]; 10 μM roscovitine applied on day 2
  neuronal cell population: caused a decrease in the neuronal population
[3]; 10 μM roscovitine introduced on day 7
  neuronal cell population: a sharp loss of neurons
[3]
  neuronal division after addition to the culture medium: neurons no longer divided
[3]; listed as Roscovitine
  neuronal division after addition to the culture medium: prevented neuronal mitotic activity
[3]; roscovitine treated, non-proliferating neurons, immunocytochemistry
  expression of neuronal and proliferation markers (MAP2, NeuN, Ki-67): expressed the mature neuronal markers MAP2 and NeuN, but lacked expression for the nuclear marker of proliferating cells, Ki-67

## bFGF: basic fibroblast growth factor (Invitrogen, 13256-029)
[3]; bFGF 5 ng/ml in medium
  neuronal cell proliferation: triggered neuronal cell proliferation until confluence
